Laboratory results as given in patent US6534539B2, “Pharmaceutical composition and method for treatment of dyspepsia” (Hoffman-La Roche Inc., priority 2000, dated 2003).

Key:
Assay type in all cases: in vivo, human
[1] = tested on: normal volunteers, clinical model of dyspepsia (gastric distension); assay: Gastrointestinal sensations (visual analogue scales) during gastric distensions and duodenal infusion of fat emulsion
Source text: (§1) The reduction of dyspeptic symptoms by lipase inhibitors, particularly orlistat, was shown in human clinical studies that measured functional dyspepsia. Specifically, we measured the reduction of dyspeptic symptoms after administration of orlistat to normal volunteers (healthy subjects without a history of gastrointestinal disease (8 female and 7 male), aged 24-38 years; normal body weight (BMI (kg/m^2): females: 21.9±0.4, males: 23.4±0.4) during infusion of a fat emulsion into the duodenum in a clinical model of idopathic dyspepsia (gastric distension). BMI means body mass index.
(§2) Fat emulsions (Table 1) were infused intraduodenally via a single-lumen, naso-duodenal polyvinyl tube as described previously (Feinle, AJP2000), while the stomach was distended. Gastrointestinal sensations were assessed by a visual analog questionnaire. […]
(§3) Studies were performed in a double-blind, placebo-controlled, cross-over fashion in randomised order at least one week apart. […] At first, the minimal distending pressure (MDP) was determined by increasing intragastric pressure in steps of 1 mmHg/min. Pressure was then fixed at MDP and fasting tone recorded until variations in gastric volume were no longer observed. […] Two isobaric distensions were performed, 15 min apart from each other, by increasing intrabag pressure in steps of 1 mmHg/min, while corresponding volumes were monitored. […]

[2] = tested on: normal volunteers, clinical model of dyspepsia (gastric distension); assay: Changes in gastric tone (gastric baseline volume at MDP) during duodenal infusions; conditions: orlistat added to oil emulsion infused intraduodenally; p <0.05
Source text: as §1
Fat emulsions (Table 1) were infused intraduodenally via a single-lumen, naso-duodenal polyvinyl tube as described previously (Feinle, AJP2000), while the stomach was distended. Gastrointestinal sensations were assessed by a visual analog questionnaire.
as §3

[3] = tested on: normal volunteers, clinical model of dyspepsia (gastric distension); assay: Pressure-volume relationships during gastric distensions and duodenal infusion of fat emulsion (gastric barostat); conditions: p <0.05
Source text: as §1, §2, §3

## CCCCCCCCCCC[C@@H](C[C@@H]1OC(=O)[C@H]1CCCCCC)OC(=O)[C@H](CC(C)C)NC=O [orlistat]
[1]; increasing intragastric pressure during duodenal fat infusion
  Effects of LCTs on scores for fullness, bloating, nausea, pressure and hunger: significantly diminished
[1]; orlistat added to fat emulsion infused into the duodenum, gastric distension by inflatable balloon
  Intensity of stomach fullness and sensitivity, nausea and bloating: reduced
[2]
  Gastric baseline volume change during infusions: completely abolished
[3]
  Maximally tolerated pressure during gastric distension: significantly increased
